Test results reported in article PMC5103170, “Total Synthesis, Structure, and Biological Activity of Adenosylrhodibalamin, the Non‐Natural Rhodium Homologue of Coenzyme B12” (Angewandte Chemie (International Ed. in English), 2016).

Biological target: T1, 1,2-propanediol dehydratase (PduCDE) (Citrobacter freundii, UniProt P0DUM7+P0DUM8)
T1 construct: gene pduC; purified enzyme, alpha2beta2gamma2; construct details only in Supporting Information; with Propanediol dehydratase small subunit
T1 sequence (P0DUM7 1-554): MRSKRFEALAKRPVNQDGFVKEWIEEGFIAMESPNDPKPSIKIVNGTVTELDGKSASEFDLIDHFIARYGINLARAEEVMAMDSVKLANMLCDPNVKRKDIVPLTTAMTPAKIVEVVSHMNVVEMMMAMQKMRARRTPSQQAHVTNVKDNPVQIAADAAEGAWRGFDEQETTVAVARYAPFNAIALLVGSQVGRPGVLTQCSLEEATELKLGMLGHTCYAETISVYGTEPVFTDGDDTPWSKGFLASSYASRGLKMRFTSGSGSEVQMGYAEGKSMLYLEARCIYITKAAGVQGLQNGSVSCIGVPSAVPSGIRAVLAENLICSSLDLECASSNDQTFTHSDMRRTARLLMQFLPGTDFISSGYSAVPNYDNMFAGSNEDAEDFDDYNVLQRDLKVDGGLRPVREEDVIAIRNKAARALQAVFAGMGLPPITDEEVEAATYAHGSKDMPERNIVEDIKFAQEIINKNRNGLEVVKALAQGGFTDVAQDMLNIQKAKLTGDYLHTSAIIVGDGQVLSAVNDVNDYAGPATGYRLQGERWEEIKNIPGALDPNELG
T1 sequence (P0DUM8 1-224): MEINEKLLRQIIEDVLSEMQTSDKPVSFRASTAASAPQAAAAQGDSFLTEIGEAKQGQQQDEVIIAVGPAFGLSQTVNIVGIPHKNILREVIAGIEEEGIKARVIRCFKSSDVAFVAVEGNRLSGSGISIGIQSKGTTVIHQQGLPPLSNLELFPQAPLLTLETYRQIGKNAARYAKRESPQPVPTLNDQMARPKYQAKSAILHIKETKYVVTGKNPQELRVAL
T1 sequence (P0DUM9 1-172 partner): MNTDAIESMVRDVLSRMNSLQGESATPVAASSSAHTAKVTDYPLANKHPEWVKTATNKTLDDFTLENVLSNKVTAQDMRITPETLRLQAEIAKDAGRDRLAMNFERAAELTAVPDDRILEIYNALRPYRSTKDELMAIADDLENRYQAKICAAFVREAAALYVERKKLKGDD
Test: enzyme inhibition kinetics, non-linear regression
Type: biochemical
Settings: competitive with AdoCbl

Substance	Ki (inactive as pseudo-coenzyme) [µM]	Ki [µM]
AdoRbl	6.9	
vitamin B12		2.5
